# Data from PMC8847198, “The Influence of AA29504 on GABAA Receptor Ligand Binding Properties and Its Implications on Subtype Selectivity” (Neurochemical Research, 2021).
# Where two headings read alike, the source gives them in different places.
# How the values were obtained:
# [1] = test system: GABAARs in δKO forebrain membranes; assay: [^3H]muscimol association and dissociation, δKO forebrain membranes; type: binding, mouse
# Experimental: (§1) WT and δKO forebrain membranes were prepared using the method of Squires and Saederup as modified by Uusi-Oukari et al.. Homogenized and washed membranes were suspended in 10 mM Tris–HCl, pH 7.4 and stored at -70 °C.
# (§2) The effect of AA29504 on the association and dissociation of [^3H]muscimol binding was measured essentially as described by Benkherouf et al.. Saturation analysis of [^3H]muscimol was performed essentially as described by Uusi-Oukari and Korpi. Triplicate samples of the membranes were incubated in assay buffer with a concentration series of [^3H]muscimol (1–50 nM) at room temperature (22 °C) for 60 min in the absence and presence of 10 µM AA29504. […] .
# (§3) GraphPad Prism software (GraphPad, San Diego, CA, USA) was used for nonlinear least squares curve-fitting and statistical testing of association, dissociation, saturation binding and radioligand displacement data. The association and dissociation curves were used for the estimation of association (Kon) and dissociation (Koff) rate constants. Saturation binding curves were used for the estimation of total number of high-affinity binding sites (Bmax), and equilibrium dissociation constants (KD). […] . Statistical comparisons were made with One-way ANOVA, Two-way ANOVA or Brown-Forsythe and Welch ANOVA followed by the relevant (Tukey’s or Dunnett’s) post hoc tests for multiple comparisons. […] . The study samples were not randomized and analysis was performed in a parallel unblinded mode.
# [2] = target: T1, recombinant α6β3γ2 GABAARs expressed in HEK293 cells (Rattus norvegicus, UniProt P18508+P30191+P63079); assay: GABA-independent displacement of [^3H]EBOB binding, recombinant α6β3γ2
# T1 construct: expressed in transfected cells; host or cells: HEK293, transient calcium phosphate transfection, pRK5 plasmids, 1:1:1
# Experimental: (§4) Triplicate samples were incubated with shaking for 2 h. […] The incubations were terminated as described above for [^3H]muscimol binding.
# (§5) GraphPad Prism software (GraphPad, San Diego, CA, USA) was used for nonlinear least squares curve-fitting and statistical testing of association, dissociation, saturation binding and radioligand displacement data. The association and dissociation curves were used for the estimation of association (Kon) and dissociation (Koff) rate constants. Saturation binding curves were used for the estimation of total number of high-affinity binding sites (Bmax), and equilibrium dissociation constants (KD). […] Statistical comparisons were made with One-way ANOVA, Two-way ANOVA or Brown-Forsythe and Welch ANOVA followed by the relevant (Tukey’s or Dunnett’s) post hoc tests for multiple comparisons. […] The study samples were not randomized and analysis was performed in a parallel unblinded mode.
# [3] = test system: native GABAARs expressed in δKO mice forebrain membranes; assay: AA29504 effect on [^3H]muscimol binding, δKO forebrain membranes; set-up: species or system mouse; details: increasing concentrations of AA29504, 15 min, 22 °C
# Experimental: as §1
# [4] = test system: GABAARs in WT forebrain membranes; assay: [^3H]muscimol association and dissociation, WT forebrain membranes; type: binding, mouse
# Experimental: as §1, §2, §3
# [5] = test system: native GABAARs expressed in WT mice forebrain membranes; assay: AA29504 effect on [^3H]muscimol binding, WT forebrain membranes; set-up: species or system mouse; details: increasing concentrations of AA29504, 15 min, 22 °C
# Experimental: as §1
# [6] = set-up: method as in PMID 20060846, PMID 22579928, PMID 20957350; details: 60 min post 2 mg/kg, s.c. in mice; cited from earlier work
# [7] = test system: native GABAARs expressed in δKO mice forebrain membranes; assay: AA29504 effect on [^3H]GABA binding, δKO forebrain membranes; set-up: species or system mouse; details: increasing concentrations of AA29504, 15 min, 22 °C
# Experimental: as §1
# [8] = target: recombinant α6β2γ2 GABAARs expressed in HEK293 cells (Rattus norvegicus, UniProt P18508+P30191+P63138); assay: AA29504 effect on [^3H]muscimol binding, recombinant α6β2γ2; details: α6β2γ2, HEK293, 4 concentrations of AA29504
# Experimental: (§6) Human embryonic kidney (HEK) 293 cells were maintained at + 37 °C/10% CO2 in Dulbecco’s Modified Eagle’s Medium (DMEM) (Gibco, Gaithersburg, MD, USA), supplemented with 3.7 g/L NaHCO3, 10% Fetal Bovine Serum (FBS) (Gibco, Gaithersburg, MD, USA), 50,000 U/L penicillin and 50 mg/L streptomycin (Sigma-Aldrich, St Louis, MO, USA). The cells were divided and plated on 10 cm culture dishes for binding assays 24 h before transfection. HEK293 cells were transfected with rat cDNAs (α1, α6, β2, β3, γ2S, δ) in pRK5 plasmids [39] under the control of cytomegalovirus (CMV) promoter using calcium phosphate transfection method essentially as described by Lüddens and Korpi [40]. The plasmids were used in 1:1 and 1:1:1 ratios for transfections containing 2 [(α6) + (β3)] or 3 [(α1 or α6) + (β2 or β3) + (γ2S or δ)] different subunits, respectively (5 μg of each plasmid DNA for a 10 cm plate). The cells were incubated at 37 °C/10% CO2 for 24 h post-transfection. Old culture medium was replaced with fresh medium and the incubation resumed for another 24 h. The cells were harvested 48 h post-transfection. […]
# (§7) Individually pooled triplicate membrane samples (3 total binding and 3 non‐specific binding) were incubated with shaking for 15 min. The effect of AA29504 on binding was determined in the presence of various concentrations of AA29504. […]
# [9] = target: T2, recombinant α6β3 GABAARs expressed in HEK293 cells (Rattus norvegicus, UniProt P30191+P63079); assay: GABA-independent displacement of [^3H]EBOB binding, recombinant α6β3
# T2 construct: expressed in transfected cells; host or cells: HEK293, transient calcium phosphate transfection, pRK5 plasmids
# Experimental: as §4, §5
# [10] = test system: native GABAARs expressed in WT mice forebrain membranes; assay: AA29504 effect on [^3H]GABA binding, WT forebrain membranes; set-up: species or system mouse; details: increasing concentrations of AA29504, 15 min, 22 °C
# Experimental: as §1
# [11] = target: recombinant α6β2δ GABAARs expressed in HEK293 cells (Rattus norvegicus, UniProt P18506+P30191+P63138); assay: AA29504 effect on [^3H]muscimol binding, recombinant α6β2δ; details: HEK293, 4 concentrations of AA29504
# Experimental: as §6, §7
# [12] = target: T3, recombinant α6β3δ GABAARs expressed in HEK293 cells (Rattus norvegicus, UniProt P18506+P30191+P63079); assay: GABA-independent displacement of [^3H]EBOB binding, recombinant α6β3δ
# T3 construct: expressed in transfected cells; host or cells: HEK293, transient calcium phosphate transfection, pRK5 plasmids, 1:1:1
# Experimental: as §4, §5
# [13] = target: recombinant α1β2γ2 GABAARs expressed in HEK293 cells (Rattus norvegicus, UniProt P18508+P62813+P63138); assay: AA29504 effect on [^3H]muscimol binding, recombinant α1β2γ2; details: α1β2γ2, HEK293, 4 concentrations of AA29504
# Experimental: as §6, §7
# [14] = set-up: method as in PMID 31736685; details: in vivo; cited from earlier work
# [15] = test system: native GABAARs expressed in WT forebrain membranes; type: binding, mouse; details: read-out: IC50 of agonist-induced [^3H]EBOB displacement
# Experimental: as §1, §4, §5
# [16] = test system: native GABAARs expressed in δKO forebrain membranes; type: binding, mouse; details: read-out: IC50 of agonist-induced [^3H]EBOB displacement
# Experimental: as §1, §4, §5
# [17] = target: GABAARs in WT mouse forebrain membranes; assay: Saturation analysis of [^3H]muscimol binding, WT forebrain membranes
# Experimental: as §1, §2, §3
# [18] = target: GABAARs in δKO mouse forebrain membranes; assay: Saturation analysis of [^3H]muscimol binding, δKO forebrain membranes; details: one-site model
# Experimental: as §1, §2
# as §3, with “The study samples were not randomized and analysis was performed in a parallel unblinded mode.” left out
# [19] = 10 µM AA29504, 2 nM [^3H]muscimol, control binding without AA29504
# [20] = 2 nM [^3H]muscimol, 22 °C, absence of AA29504
# T2 sequence (P30191 20-453): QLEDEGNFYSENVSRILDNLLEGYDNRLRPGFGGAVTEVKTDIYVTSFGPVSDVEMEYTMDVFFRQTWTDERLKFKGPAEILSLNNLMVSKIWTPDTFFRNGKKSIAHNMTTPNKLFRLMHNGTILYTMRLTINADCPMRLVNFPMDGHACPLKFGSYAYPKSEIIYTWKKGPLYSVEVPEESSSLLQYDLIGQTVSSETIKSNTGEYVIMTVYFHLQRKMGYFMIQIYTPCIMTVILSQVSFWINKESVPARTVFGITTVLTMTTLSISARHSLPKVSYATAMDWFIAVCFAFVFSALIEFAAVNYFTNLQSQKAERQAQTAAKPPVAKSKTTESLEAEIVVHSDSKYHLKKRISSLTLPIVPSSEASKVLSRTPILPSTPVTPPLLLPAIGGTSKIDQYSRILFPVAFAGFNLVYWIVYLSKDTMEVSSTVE
# T2 sequence (P63079 26-473): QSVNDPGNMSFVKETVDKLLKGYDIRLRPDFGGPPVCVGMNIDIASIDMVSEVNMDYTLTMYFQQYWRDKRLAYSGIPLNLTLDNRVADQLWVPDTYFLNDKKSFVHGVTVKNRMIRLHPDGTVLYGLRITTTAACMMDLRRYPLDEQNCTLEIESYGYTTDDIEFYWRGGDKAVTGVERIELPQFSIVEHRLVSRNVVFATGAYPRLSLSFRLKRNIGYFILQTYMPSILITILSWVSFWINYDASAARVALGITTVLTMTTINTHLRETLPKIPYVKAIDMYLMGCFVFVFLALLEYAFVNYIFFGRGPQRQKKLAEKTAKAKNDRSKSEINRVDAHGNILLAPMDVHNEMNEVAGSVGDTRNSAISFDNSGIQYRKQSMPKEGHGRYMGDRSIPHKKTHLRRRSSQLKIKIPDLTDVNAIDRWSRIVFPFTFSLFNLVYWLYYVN
# T3 sequence (P30191 20-453): as the sequence (P30191 20-453) above
# T3 sequence (P63079 26-473): as the sequence (P63079 26-473) above
# T3 sequence (P18506 17-449 limits assumed): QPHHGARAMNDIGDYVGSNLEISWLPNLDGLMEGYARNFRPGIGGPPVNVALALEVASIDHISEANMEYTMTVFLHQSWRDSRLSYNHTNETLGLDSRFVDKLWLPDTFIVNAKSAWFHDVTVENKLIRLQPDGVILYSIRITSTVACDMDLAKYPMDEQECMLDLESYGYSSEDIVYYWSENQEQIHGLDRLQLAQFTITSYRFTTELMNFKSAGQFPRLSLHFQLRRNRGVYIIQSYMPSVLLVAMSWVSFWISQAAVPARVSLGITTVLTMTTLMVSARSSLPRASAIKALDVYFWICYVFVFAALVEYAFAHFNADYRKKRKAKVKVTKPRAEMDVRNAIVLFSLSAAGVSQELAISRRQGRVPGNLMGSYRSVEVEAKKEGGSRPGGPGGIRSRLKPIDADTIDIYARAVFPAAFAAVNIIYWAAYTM
# T1 sequence (P30191 20-453): as the sequence (P30191 20-453) above
# T1 sequence (P63079 26-473): as the sequence (P63079 26-473) above
# T1 sequence (P18508 39-466): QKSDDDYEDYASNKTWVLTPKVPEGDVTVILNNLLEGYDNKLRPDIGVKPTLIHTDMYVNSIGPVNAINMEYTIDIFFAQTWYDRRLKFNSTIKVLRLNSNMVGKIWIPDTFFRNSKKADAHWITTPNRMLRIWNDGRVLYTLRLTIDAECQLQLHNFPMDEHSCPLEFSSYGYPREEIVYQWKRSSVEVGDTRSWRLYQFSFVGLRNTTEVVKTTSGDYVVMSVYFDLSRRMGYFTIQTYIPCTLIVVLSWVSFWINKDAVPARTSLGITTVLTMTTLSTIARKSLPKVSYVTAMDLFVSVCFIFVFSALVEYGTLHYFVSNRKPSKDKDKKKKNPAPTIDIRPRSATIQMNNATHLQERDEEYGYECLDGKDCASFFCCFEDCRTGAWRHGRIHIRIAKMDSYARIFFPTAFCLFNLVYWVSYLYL
# recombinant α6β2δ GABAARs expressed in HEK293 cells, sequence (P30191 20-453): as the sequence (P30191 20-453) above
# recombinant α6β2δ GABAARs expressed in HEK293 cells, sequence (P63138 25-474 limits assumed): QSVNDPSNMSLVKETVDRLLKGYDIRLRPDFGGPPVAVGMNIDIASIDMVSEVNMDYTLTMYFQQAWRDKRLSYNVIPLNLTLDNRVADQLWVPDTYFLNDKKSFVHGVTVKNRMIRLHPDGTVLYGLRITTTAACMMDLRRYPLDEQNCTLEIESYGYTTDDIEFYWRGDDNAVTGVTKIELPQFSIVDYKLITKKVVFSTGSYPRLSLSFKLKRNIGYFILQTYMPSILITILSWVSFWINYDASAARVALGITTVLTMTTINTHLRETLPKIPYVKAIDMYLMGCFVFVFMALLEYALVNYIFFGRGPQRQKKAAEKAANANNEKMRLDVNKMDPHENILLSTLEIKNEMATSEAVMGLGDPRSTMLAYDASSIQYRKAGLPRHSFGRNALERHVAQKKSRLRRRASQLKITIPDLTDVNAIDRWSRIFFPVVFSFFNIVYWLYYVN
# recombinant α6β2δ GABAARs expressed in HEK293 cells, sequence (P18506 17-449 limits assumed): as the sequence (P18506 17-449 limits assumed) above
# recombinant α6β2γ2 GABAARs expressed in HEK293 cells, sequence (P30191 20-453): as the sequence (P30191 20-453) above
# recombinant α6β2γ2 GABAARs expressed in HEK293 cells, sequence (P63138 25-474 limits assumed): as the sequence (P63138 25-474 limits assumed) above
# recombinant α6β2γ2 GABAARs expressed in HEK293 cells, sequence (P18508 39-466): as the sequence (P18508 39-466) above
# recombinant α1β2γ2 GABAARs expressed in HEK293 cells, sequence (P62813 28-455): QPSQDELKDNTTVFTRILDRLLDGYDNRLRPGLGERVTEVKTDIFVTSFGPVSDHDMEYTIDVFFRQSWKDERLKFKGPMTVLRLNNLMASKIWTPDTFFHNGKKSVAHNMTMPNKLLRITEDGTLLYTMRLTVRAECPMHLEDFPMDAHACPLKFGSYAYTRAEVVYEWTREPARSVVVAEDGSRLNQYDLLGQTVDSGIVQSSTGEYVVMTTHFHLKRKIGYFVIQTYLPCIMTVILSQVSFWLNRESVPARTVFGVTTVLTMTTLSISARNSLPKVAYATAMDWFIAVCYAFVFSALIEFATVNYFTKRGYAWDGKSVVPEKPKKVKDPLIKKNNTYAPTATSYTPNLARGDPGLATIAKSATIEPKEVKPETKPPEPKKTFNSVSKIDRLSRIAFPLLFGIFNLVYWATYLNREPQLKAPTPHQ
# recombinant α1β2γ2 GABAARs expressed in HEK293 cells, sequence (P63138 25-474): as the sequence (P63138 25-474 limits assumed) above
# recombinant α1β2γ2 GABAARs expressed in HEK293 cells, sequence (P18508 39-466): as the sequence (P18508 39-466) above
structure (smiles),measurement,setting,value
"CCOC(=O)Nc1ccc(NCc2c(C)cc(C)cc2C)cc1N [AA29504, [2-amino-4-(2,4,6-trimethylbenzylamino)-phenyl]-carbamic acid ethyl ester]",maximal increased specific [^3H]muscimol binding,[1]; [19],240 ± 23 % of control binding
same,concentration at which GABA-independent radioligand displacement was evident,"[2]; α6β3γ2, 1 nM [^3H]EBOB",≥ 300 nM
same,IC50,"[2]; α6β3γ2, HEK293, 1 nM [^3H]EBOB, no GABA",11100 ± 1400 nM
same,effect on 2 nM [^3H]muscimol binding,[3],concentration-dependent stimulation
same,maximal increased specific [^3H]muscimol binding,[4]; [19],166 ± 5 % of control
same,effect on 2 nM [^3H]muscimol binding,[5],concentration-dependent stimulation
same,brain concentration,[6],1000 nM
same,effect on 5 nM [^3H]GABA binding,[7],concentration-dependent stimulation
same,effect on 2 nM [^3H]muscimol binding,[8],stimulated
same,concentration at which GABA-independent radioligand displacement was evident,"[9]; α6β3, 1 nM [^3H]EBOB",≥ 100 nM
same,IC50,"[9]; α6β3, HEK293, 1 nM [^3H]EBOB, no GABA",400 ± 20 nM
same,effect on 5 nM [^3H]GABA binding,[10],concentration-dependent stimulation
same,effect on 2 nM [^3H]muscimol binding,[11],no significant effect
same,concentration at which GABA-independent radioligand displacement was evident,[12]; 1 nM [^3H]EBOB,≥ 100 nM
same,IC50,"[12]; HEK293, 1 nM [^3H]EBOB, no GABA",1100 ± 200 nM
same,effect on 2 nM [^3H]muscimol binding,[13],stimulated
"O=C(Nc1c(-c2cccs2)nc2ccccn12)c1ccc(Cl)cc1 [DS2, 4-chloro-N-[2-(2-thienyl)imidazo[1,2-a]pyridin-3-yl]benzamide]",brain bioavailability,[14],limited brain bioavailability
"Oc1noc2c1CCNC2 [THIP, 4,5,6,7-tetrahydroisoxazolo[5,4-c]pyridin-3-ol]",IC50,[15],200000 ± 110000 nM
same,IC50,[16],220000 ± 50000 nM
[3H]C([3H])(N)c1cc(=O)[nH]o1 [[^3H]muscimol],association rate constant Kon,[1]; [20],5.9 ± 0.6 × 10^8 M^−1 × min^−1
same,dissociation rate constant Koff,[1]; [20],0.011 ± 0.0005 s⁻¹
same,association rate constant Kon,[4]; [20],2.2 ± 0.3 × 10^8 M^−1 × min^−1
same,dissociation rate constant Koff,[4]; [20],0.00633 ± 0.00033 s⁻¹
same,Kd,"[17]; with AA29504 (10 µM), 22 °C, one-site model, read-out: KD",23 ± 4 nM
same,Kd,"[17]; without AA29504, 22 °C, read-out: KD, site (1) of two-site model",4.1 ± 3.6 nM
same,Kd,"[17]; without AA29504, 22 °C, read-out: KD, site (2) of two-site model (converted)",40 nM
same,Kd,"[18]; with AA29504 (10 µM), 22 °C",30 ± 3 nM
same,Kd,"[18]; without AA29504, 22 °C",53 ± 6 nM
